# From patent US6359156B1, “Oxime amides and hydrazone amides having fungicidal activity” (Monsanto Technology LLC, priority 1999, dated 2002)
# Read-outs that look alike come from different tables or passages of the source.
# Key:
# Ggt [1] = assay: In vitro assay: inhibition of mycelial growth of Ggt on minimal media agar; type: cell-based, Gaeumannomyces graminis var. tritici; conditions: Gaeumannomyces graminis, read-out: % Control of Ggt In Vitro
# Description: The test compounds (0.25 mL of an appropriate stock solution in acetone) were incorporated into 25 mL minimal media agar [prepared by autoclaving a solution of 17.5 g Czapek Dox broth (Difco), 7.5 g purified agar or Bacto-agar (Difco), and 500 mL distilled/deionized water, and then adding 50 μL of 1 mg/mL thiamine hydrochloride and 50 μL of 1 mg/mL biotin in 5% ethanol] and plates were prepared.
# Each plate was inoculated by placing in a triangular shape three 4 mm plugs of Ggt grown on the minimal media agar described above. The plates were incubated in the dark at 19-20° C. for 4-5 days. The growth of the fungus was measured as the diameter of the mycelial growth and the result expressed as Percent Inhibition, calculated as [1−[(mm growth on treated plate−4)/(mm growth on control plate−4)]]×100.
# Ggt [2] = assay: 4 Week In Vivo Seed Treatment Assay on "Bergen" wheat in soil infested with Ggt; parameters: species or system Gaeumannomyces graminis var. tritici
# Description: The test compounds were tested for control of Ggt on “Bergen” varieties of wheat grown in 3 inch square pots containing soil (equal to thirds of Metro-mix, sand, and silt-loam filed soil, all steam sterilized). Seeds were treated with a solution of a test compound in acetone. Using a 10,000 ppm stock for each compound, the following serial dilutions were prepared.
# When 1 mL of the stock and dilutions was applied to 10 gm of seed, the resultant application rates were 100 and 25 g of active ingredient per 100 kg of seed.
# A treatment jar was rinsed 2 times with 3 mL of acetone. The 1 mL of the solution was swirled to cover the base of the jar. 10 gm of seed was added to the jar and capped, after which the jar was swirled and shaken until the seeds got a rapid and even coverage. After about 30-50 seconds, the lid was removed while the shaking was continued. After 1 minute, the jar was set aside to dry. When dry, the seed was poured into an envelope for storage until planting.
# Compounds were tested for control of Ggt on “Bergen” varieties of wheat grown in 3 inch square pots containing soil infested with Ggt. The infestation was accomplished by mixing the soil with an inoculum prepared by growing Ggt on infested sterile oats (400 cc whole oats, 350 mL deionized water, autoclaved). After a one month incubation period at room temperature, the oats were dried and mixed with the soil at 4% v/v.
# The roots were harvested, washed, and rated after 4 weeks. Each treatment was assigned a percent (%) diseased root area value using 1, 5, 10, 20, 30, 40, 50, 60, 80, or 100% ratings. Each pot of plants got a single rating.
# [3] = 0.1 ppm in agar, 4-5 days at 19-20° C.
# [4] = 1 ppm in agar, 4-5 days at 19-20° C.
# [5] = 10 ppm in agar, 4-5 days at 19-20° C.
# [6] = 0.01 ppm in agar, 4-5 days at 19-20° C.
# [7] = 25 g ai/100 kg seed, roots rated after 4 weeks
# [8] = 100 g ai/100 kg seed, roots rated after 4 weeks
Structure (SMILES),inhibition of growth at 0.1 ppm (Ggt [1]; [3]),inhibition of growth at 1 ppm (Ggt [1]; [4]),inhibition of growth at 10 ppm (Ggt [1]; [5]),other results
C=CCNC(=O)C(=NOC(C)(C)C)c1ccccc1 [Example 12],67%,98%,100%,
CCCNC(=O)/C(=N\OC(C)(CC)CC)c1ccccc1 [Example 7],98%,100%,100%,inhibition of growth at 0.01 ppm (Ggt [1]; [6]): 16%
CCCNC(=O)/C(=N/OC(C)(C)C)c1cccs1 [Example 15],10%,20%,94%,
C=CCNC(=O)C(=NNC(C)(C)C)c1ccccc1 [Example 13],25%,96%,96%,
CCCNC(=O)/C(=N/OC(C)(C)CC)c1ccccc1 [Example 6],2%,2%,20%,
CCCNC(=O)/C(=N/NC(C)(C)C)c1ccccc1 [Example 4],0%,0%,43%,
CCCNC(=O)/C(=N\NC(C)(C)C)c1ccccc1 [Example 3],19%,89%,97%,% Control of Ggt In Vivo (Ggt [2]; [7]): 21%; % Control of Ggt In Vivo (Ggt [2]; [8]): 0%
CCCNC(=O)C(=NOC(C)(C)C)c1ccco1 [Example 16],24%,51%,92%,
CCCNC(=O)/C(=N/OC(C)(CC)CC)c1ccccc1 [Example 8],2%,80%,98%,
CCCNC(=O)/C(=N/OC(C)(C)C)c1ccccc1 [Example 2],27%,0%,0%,
CCCNC(=O)/C(=N\OC(C)(C)C)c1cccs1 [Example 14],96%,100%,100%,
CCCNC(=O)/C(=N\OC(C)(C)CC)c1ccccc1 [Example 5],100%,100%,100%,inhibition of growth at 0.01 ppm (Ggt [1]; [6]): 59%
"C=CCNC(=O)c1c([Si](C)(C)C)sc(C)c1C [Standard, reference compound]",,,,"inhibition of growth at 0.01 ppm (Ggt [1]): 100%; inhibition of growth at 0.1 ppm (Ggt [1]): 100%; inhibition of growth at 1 ppm (Ggt [1]): 100%; inhibition of growth at 10 ppm (Ggt [1]): 100%; % Control of Ggt In Vivo (Ggt [2]; 25, roots rated after 4 weeks): 90%; % Control of Ggt In Vivo (Ggt [2]; 100, roots rated after 4 weeks): 93%"
CCCNC(=O)/C(=N\OC(C)(C)C)c1ccccc1 [Example 1],96%,100%,100%,inhibition of growth at 0.01 ppm (Ggt [1]; [6]): 4%; % Control of Ggt In Vivo (Ggt [2]; [7]): 71%; % Control of Ggt In Vivo (Ggt [2]; [8]): 79%
CCCNC(=O)C(=NOC(C)(C)C)c1cccc(C)c1 [Example 10],5%,32%,80%,
CCCNC(=O)C(=NOC(C)(C)C)c1ccc(C)cc1 [Example 9],7%,37%,80%,
CCCNC(=O)C(=NOC(C)(C)C)c1ccccc1F [Example 11],0%,43%,77%,
